In patent US7939534B2, “Certain chemical entities, compositions, and methods” (Cytokinetics, Inc., priority 2006, dated 2011):

Target: T1, chicken gizzard smooth muscle myosin subfragment-1 chemically crosslinked to either cardiac or skeletal actin (Gallus gallus, UniProt P10587)
T1 construct: chicken gizzard smooth muscle myosin subfragment-1; from tissue; host or cells: chicken gizzard
Assay: Dose dependent smooth muscle myosin ATPase modulation (pyruvate kinase/horseradish peroxidase/pyruvate oxidase-coupled ATPase assay)
Format: biochemical
Settings: read-out: IC50 Arithmetic Mean
Method: In Vitro Model of Dose Dependent Smooth Muscle Myosin Atpase Modulation
Screening assays were performed using a pyruvate kinase and lactate dehydrogenase-coupled ATPase assay containing the following reagents: Potassium PIPES (50 mM ), MgCl2 (3 mM ), KCl (100 mM ), ATP (0.15 mM ), DTT (1 mM ), BSA (0.1 mg/ml), NADH (0.5 mM ), PEP (1.5 mM ), pyruvate kinase (4 U/ml), lactate dehydrogenase (8 U/ml), and antifoam (50 ppm) (concentrations expressed are final assay concentrations). The pH was adjusted to 6.80 at 22° C. by addition of potassium hydroxide. Lead optimization assays were performed with a more sensitive pyruvate kinase/horseradish peroxidase/pyruvate oxidase-coupled ATPase assay containing the following reagents: Potassium PIPES (12 mM ), MgCl2 (2 mM ), KCl (100 mM ), ATP (0.15 mM ), BSA (0.05 mg/ml), potassium phosphate (2 mM ), amplex red (0.1 mM ), PEP (0.1 mM ), pyruvate kinase (4 U/ml), horseradish peroxidase (0.5 U/ml), pyruvate oxidase (0.5 U/ml), and antifoam (50 ppm) (concentrations expressed are final assay concentrations). The pH was adjusted to 7.00 at 22° C. by addition of potassium hydroxide.
The protein components specific to this assay are chicken gizzard smooth muscle myosin subfragment-1 that has been chemically crosslinked to either cardiac or skeletal actin using an excess of 1-Ethyl-3-[3-dimethylaminopropyl]carbodiimide hydrochloride and N-hydroxysuccinimide. The exact concentration of the crosslinked smooth muscle myosin in the assay is determined empirically, by titration to achieve a desired rate of ATP hydrolysis. The concentration varies between protein preparations due to variations in the fraction of active molecules in each preparation.
Compound dose response assays are performed by first preparing a dilution series of test compound, each with an assay mixture containing potassium PIPES, MgCl2, KCl, ATP, BSA, potassium phosphate, amplex red, PEP, crosslinked smooth muscle actomyosin (subfragment-1), antifoam, and water. The assay is started by adding an equal volume of solution containing potassium Pipes, MgCl2, KCl, BSA, potassium phosphate, pyruvate kinase, horseradish peroxidase, pyruvate oxidase, antifoam, and water. ATP hydrolysis is monitored by measuring the fluorescence of amplex red (excitation at 480 nm, emission at 615 nm). The resulting dose response curve is fit by the 4 parameter equation y=Bottom+((Top−Bottom)/(1+((IC50/X)^Hill))). The IC50 is defined as the concentration at which ATPase activity is midway between the top and bottom of the dose response curve.

Compound	IC50
O=C1CC=C(c2ccc(C(=O)NCc3cccnc3)c(NCCc3cccc(F)c3)n2)CC1 [Compound 64, (2-{[2-(3-fluorophenyl)ethyl]amino}-6-(4-oxocyclohex-1-enyl)(3-pyridyl))-N-(3-pyridylmethyl)carboxamide]	0.671 µM
NCc1cccc(CNC(=O)c2ccc(N3CC[C@H](O)C3)nc2NCCc2cccc(F)c2)n1 [Compound 102, (6-((3S)-3-hydroxypyrrolidinyl)-2-{[2-(3-fluorophenyl)ethyl]amino}(3-pyridyl))-N-{[6-(aminomethyl)(2-pyridyl)]methyl}carboxamide]	3.07 µM
COC(=O)N1C=CC(c2ccc(C(=O)NCc3cccnc3)c(NCCc3cccc(F)c3)n2)CC1 (stereo not drawn) [Compound 72, methyl 4-(6-{[2-(3-fluorophenyl)ethyl]amino}-5-[N-(3-pyridylmethyl)carbamoyl]-2-pyridyl)-1,4,5,6-tetrahydropyridinecarboxylate]	5.77 µM
O=C(NCc1cccnc1)c1ccc(N2CCNCC2)nc1NCCc1cccc(F)c1 [Compound 116, (2-{[2-(3-fluorophenyl)ethyl]amino}-6-piperazinyl(3-pyridyl))-N-(3-pyridylmethyl)carboxamide]	31.8 µM
CC(C)(C)OC(=O)NCCCN1C(=O)CC[C@@H]1CNC(=O)c1cc(F)c(N2CCCC2)nc1NCCc1cccc(F)c1 [Compound 68, N-[((2R)-1-{3-[(tert-butoxy)carbonylamino]propyl}-5-oxopyrrolidin-2-yl)methyl](5-fluoro-2-{[2-(3-fluorophenyl)ethyl]amino}-6-pyrrolidinyl(3-pyridyl))carboxamide]	3.32 µM
CN[C@H]1CCN(c2ccc(C(=O)NCc3cccnc3)c(NCCc3cccc(F)c3)n2)C1 [Compound 120, (6-[(3S)-3-(methylamino)pyrrolidinyl]-2-{[2-(3-fluorophenyl)ethyl]amino}(3-pyridyl))-N-(3-pyridylmethyl)carboxamide]	59.5 µM
O=C(NCc1cccnc1)c1ccc(N2CCC[C@@H]2CO)nc1NCCc1cccc(F)c1 [Compound 88, (6-[(2R)-2-(hydroxymethyl)pyrrolidinyl]-2-{[2-(3-fluorophenyl)ethyl]amino}(3-pyridyl))-N-(3-pyridylmethyl)carboxamide]	10.5 µM
CCOC(=O)N1CCN(c2ccc(C(=O)NCc3cccnc3)c(NCCc3cccc(F)c3)n2)CC1 [Compound 125, ethyl 4-(6-{[2-(3-fluorophenyl)ethyl]amino}-5-[N-(3-pyridylmethyl)carbamoyl]-2-pyridyl)piperazinecarboxylate]	3.16 µM
CC(C)(C)OC(=O)N1CCC[C@@H]1CNC(=O)c1cc(F)c(N2CCCC2)nc1NCCc1cccc(F)c1 [Compound 80, tert-butyl (2R)-2-{[(5-fluoro-2-{[2-(3-fluorophenyl)ethyl]amino}-6-pyrrolidinyl(3-pyridyl))carbonylamino]methyl}pyrrolidinecarboxylate]	6.86 µM
CNC(=O)CNC(=O)c1ccc(N2CCC(O)CC2)nc1NCCc1cccc(F)c1 [Compound 90, 2-[(2-{[2-(3-fluorophenyl)ethyl]amino}-6-(4-hydroxypiperidyl)(3-pyridyl))carbonylamino]-N-methylacetamide]	9.5 µM
CC(=O)N(C)C[C@@H]1CCN(c2ccc(C(=O)NCc3cccnc3)c(NCCc3cccc(F)c3)n2)C1 [Compound 8, N-{[(3R)-1-(6-{[2-(3-fluorophenyl)ethyl]amino}-5-[N-(3-pyridylmethyl)carbamoyl](2-pyridyl))pyrrolidin-3-yl]methyl}-N-methylacetamide]	47.6 µM
CN(C)C(=O)N1CCN(c2ccc(C(=O)NCc3cccnc3)c(NCCc3cccc(F)c3)n2)CC1 [Compound 84, [4-(6-{[2-(3-fluorophenyl)ethyl]amino}-5-[N-(3-pyridylmethyl)carbamoyl](2-pyridyl))piperazinyl]-N,N-dimethylcarboxamide]	48.5 µM
N[C@@H]1CCN(c2ccc(C(=O)NCc3cccnc3)c(NCCc3cccc(F)c3)n2)C1 [Compound 46, (6-((3R)-3-aminopyrrolidinyl)-2-{[2-(3-fluorophenyl)ethyl]amino}(3-pyridyl))-N-(3-pyridylmethyl)carboxamide]	35.5 µM
CNC(=O)CNC(=O)c1ccc(N2CC[C@H](O)C2)nc1NCCc1cccc(F)c1 [Compound 89, 2-[(6-((3S)-3-hydroxypyrrolidinyl)-2-{[2-(3-fluorophenyl)ethyl]amino}(3-pyridyl))carbonylamino]-N-methylacetamide]	8.25 µM
NC1CCN(c2ccc(C(=O)NCc3cccnc3)c(NCCc3cccc(F)c3)n2)C1 (stereo not drawn) [Compound 86, (6-(3-aminopyrrolidinyl)-2-{[2-(3-fluorophenyl)ethyl]amino}(3-pyridyl))-N-(3-pyridylmethyl)carboxamide]	23.1 µM
O=C(NCc1cccnc1)c1ccc(N2CC[C@@H](CO)C2)nc1NCCc1cccc(F)c1 [Compound 6, (6-[(3R)-3-(hydroxymethyl)pyrrolidinyl]-2-{[2-(3-fluorophenyl)ethyl]amino}(3-pyridyl))-N-(3-pyridylmethyl)carboxamide]	0.311 µM
CC(C)(C)OC(=O)NCC1CCN(c2ccc(C(=O)NCc3cccnc3)c(NCCc3cccc(F)c3)n2)CC1 [Compound 109, (tert-butoxy)-N-{[1-(6-{[2-(3-fluorophenyl)ethyl]amino}-5-[N-(3-pyridylmethyl)carbamoyl](2-pyridyl))(4-piperidyl)]methyl}carboxamide]	4.56 µM
NCc1cccc(CNC(=O)c2ccc(N3CC[C@@H](O)C3)nc2NCCc2cccc(F)c2)n1 [Compound 103, (6-((3R)-3-hydroxypyrrolidinyl)-2-{[2-(3-fluorophenyl)ethyl]amino}(3-pyridyl))-N-{[6-(aminomethyl)(2-pyridyl)]methyl}carboxamide]	2.22 µM

Molecules with a lower IC50, results first:

IC50	Compound
0.0259 µM	NCc1ncccc1CNC(=O)c1cc(F)c(N2CCCC2)nc1NCCc1cccc(F)c1 [Compound 78, N-{[2-(aminomethyl)(3-pyridyl)]methyl}(5-fluoro-2-{[2-(3-fluorophenyl)ethyl]amino}-6-pyrrolidinyl(3-pyridyl))carboxamide]
0.0882 µM	NCc1ncccc1CNC(=O)c1ccc(N2CC[C@H](F)C2)nc1NCCc1cccc(F)c1 [Compound 38, (6-((3S)-3-fluoropyrrolidinyl)-2-{[2-(3-fluorophenyl)ethyl]amino}(3-pyridyl))-N-{[2-(aminomethyl)(3-pyridyl)]methyl}carboxamide]
0.295 µM	O=C(NCc1cccnc1)c1cc(Br)c(N2CCCC2)nc1NCCc1cccc(F)c1 [Compound 70, (5-bromo-2-{[2-(3-fluorophenyl)ethyl]amino}-6-pyrrolidinyl(3-pyridyl))-N-(3-pyridylmethyl)carboxamide]
0.274 µM	O=C(NCc1cccnc1)c1ccc(N2CCC(F)(F)C2)nc1NCCc1cccc(F)c1 [Compound 100, (6-(3,3-difluoropyrrolidinyl)-2-{[2-(3-fluorophenyl)ethyl]amino}(3-pyridyl))-N-(3-pyridylmethyl)carboxamide]
0.0313 µM	NCc1ncccc1CNC(=O)c1ccc(N2CC[C@@H](F)C2)nc1NCCc1cccc(F)c1 [Compound 39, (6-((3R)-3-fluoropyrrolidinyl)-2-{[2-(3-fluorophenyl)ethyl]amino}(3-pyridyl))-N-{[2-(aminomethyl)(3-pyridyl)]methyl}carboxamide]
0.234 µM	O=C(NCc1cccnc1)c1cc(Cl)c(N2CCCC2)nc1NCCc1cccc(F)c1 [Compound 48, (5-chloro-2-{[2-(3-fluorophenyl)ethyl]amino}-6-pyrrolidinyl(3-pyridyl))-N-(3-pyridylmethyl)carboxamide]
0.154 µM	O=C(NCc1cccnc1)c1ccc(N2CC=CC2)nc1NCCc1cccc(F)c1 [Compound 29, (2-{[2-(3-fluorophenyl)ethyl]amino}-6-(3-pyrrolinyl)(3-pyridyl))-N-(3-pyridylmethyl)carboxamide]
0.023 µM	NCc1ncccc1CNC(=O)c1cc(F)c(N2CC[C@@H](F)C2)nc1NCCc1cccc(F)c1 [Compound 53, (6-((3R)-3-fluoropyrrolidinyl)-5-fluoro-2-{[2-(3-fluorophenyl)ethyl]amino}(3-pyridyl))-N-{[2-(aminomethyl)(3-pyridyl)]methyl}carboxamide]
0.107 µM	O=C(NCc1cccnc1)c1ccc(N2CC[C@@H](F)C2)nc1NCCc1cccc(F)c1 [Compound 104, (6-((3R)-3-fluoropyrrolidinyl)-2-{[2-(3-fluorophenyl)ethyl]amino}(3-pyridyl))-N-(3-pyridylmethyl)carboxamide]
